This is an account of results in patent US7662832B2, “Pyrrolo[2,3-c]pyridine derivatives and processes for the preparation thereof” (priority 2004, dated 2010).

By IC50 is commonly meant the concentration that gives 50% inhibition. Read a high IC50 as lower potency.

Molecules are shown by their SMILES. Structures can show the parent of a compound that is named as a salt.

In this experiment the target is Proton Pump (H^+/K^+-ATPase) (Sus scrofa, UniProt P19156). Nature of the experiment: Inhibitory effects on proton pump (H^+/K^+-ATPase) activity. As to conditions: hog gastric vesicles; K^+ stimulated H^+/K^+-ATPase activity; 30 minutes at 37° C. The format is biochemical.
Proton Pump (H^+/K^+-ATPase), sequence (P19156 2-1034 limits assumed): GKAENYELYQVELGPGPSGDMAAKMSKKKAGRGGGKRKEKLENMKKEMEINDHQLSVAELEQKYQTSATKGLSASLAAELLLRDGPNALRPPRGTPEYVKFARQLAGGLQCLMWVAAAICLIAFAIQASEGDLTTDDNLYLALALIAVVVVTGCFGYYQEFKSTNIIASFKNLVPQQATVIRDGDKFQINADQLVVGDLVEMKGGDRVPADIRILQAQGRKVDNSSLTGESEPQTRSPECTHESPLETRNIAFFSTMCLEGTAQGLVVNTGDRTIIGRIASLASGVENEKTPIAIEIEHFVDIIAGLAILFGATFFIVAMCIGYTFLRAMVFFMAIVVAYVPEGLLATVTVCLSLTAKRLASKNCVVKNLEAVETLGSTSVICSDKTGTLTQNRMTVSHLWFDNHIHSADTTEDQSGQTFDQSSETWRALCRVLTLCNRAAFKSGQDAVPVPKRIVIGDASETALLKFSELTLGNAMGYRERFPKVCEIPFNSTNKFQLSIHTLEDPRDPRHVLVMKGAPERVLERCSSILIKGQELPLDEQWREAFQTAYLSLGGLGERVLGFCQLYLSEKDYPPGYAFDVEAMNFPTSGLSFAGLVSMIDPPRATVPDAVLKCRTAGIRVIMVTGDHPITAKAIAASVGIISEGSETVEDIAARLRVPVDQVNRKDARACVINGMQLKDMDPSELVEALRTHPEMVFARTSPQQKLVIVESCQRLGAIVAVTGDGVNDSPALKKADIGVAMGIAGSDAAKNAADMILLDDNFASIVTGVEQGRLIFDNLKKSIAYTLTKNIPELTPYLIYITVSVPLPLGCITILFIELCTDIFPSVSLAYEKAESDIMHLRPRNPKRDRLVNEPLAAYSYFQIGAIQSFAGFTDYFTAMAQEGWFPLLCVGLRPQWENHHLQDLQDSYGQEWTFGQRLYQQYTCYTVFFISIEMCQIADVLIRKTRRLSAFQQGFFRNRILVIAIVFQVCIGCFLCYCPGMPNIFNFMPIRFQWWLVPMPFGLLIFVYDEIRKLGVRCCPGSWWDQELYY
Proton Pump (H^+/K^+-ATPase), sequence (P18434 whole entry partner): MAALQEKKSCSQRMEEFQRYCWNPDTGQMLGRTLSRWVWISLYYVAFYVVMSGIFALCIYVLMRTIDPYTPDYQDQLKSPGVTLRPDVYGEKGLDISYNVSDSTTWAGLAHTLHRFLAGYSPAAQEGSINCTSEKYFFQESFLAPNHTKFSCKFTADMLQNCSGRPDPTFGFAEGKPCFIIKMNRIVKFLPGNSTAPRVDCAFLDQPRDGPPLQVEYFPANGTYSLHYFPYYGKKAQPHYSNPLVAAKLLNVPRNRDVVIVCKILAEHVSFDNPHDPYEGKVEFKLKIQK
Compound `Cc1[nH]c2c(-c3ccc4ccccc4c3)nccc2c1C` [Example 410, 2,3-dimethyl-7-(naphthalen-2-yl)-1H-pyrrolo[2,3-c]pyridine sodium] had a 50% inhibitory concentration (IC50) of 99 nM. In other words, the double-digit nanomolar range.
`C=CCn1c(C)c(C)c2ccnc(-c3ccc(Cl)cc3)c21` [Example 300, 1-allyl-7-(4-chlorophenyl)-2,3-dimethyl-1H-pyrrolo[2,3-c]pyridine hydrochloride] had an IC50 of 173 nM.
Turning to `C=CCn1c(C)c(C)c2ccnc(N3CCc4ccccc4C3)c21` [Example 494, 1-allyl-7-(1,2,3,4-tetrahydroisoquinolin-2-yl)-2,3-dimethyl-1H-pyrrolo[2,3-c]pyridine hydrobromide], the IC50 worked out at 4 nM.
Compound `Cc1c(CC#N)c2ccnc(N3CCc4ccccc4C3)c2n1Cc1ccccc1` [Example 624, [1-benzyl-7-(3,4-dihydro-1H-isoquinolin-2-yl)-2-methyl-1H -pyrrolo[2,3-c]pyridin-3-yl]-acetonitrile hydrochloride] yielded an IC50 of 10 nM. This IC50 is about 2.5-fold higher than that of the compound before.
Compound `CCc1c(C)c2ccnc(N3CCc4ccccc4C3)c2n1C` [Example 609, 2-ethyl-1,3-dimethyl-7-(1,2,3,4-tetrahydroisoquinolin-2-yl)-1H-pyrrolo[2,3-c]pyridine hydrochloride] had an IC50 of 379 nM.
Turning to `Cc1c(C)n(Cc2cccc(Cl)c2)c2c(N3CCc4ccccc4C3)nc(C(=O)N3CCN(C)CC3)cc12` [Example 836, [1-(3-chlorobenzyl)-7-(3,4-dihydro-1H-isoquinolin-2-yl)-2,3-dimethyl-1H-pyrrolo[2,3-c]pyridin-5-yl]-(4-methylpiperazin-1-yl)-methanone hydrochloride], the IC50 was 129 nM. This IC50 lies about 2.9-fold lower than the previous one.
In turn, `Cc1c(C)n(Cc2cccc(F)c2)c2c(N3CCc4ccccc4C3)nc(C(=O)N3CCOCC3)cc12` [Example 779, [7-(3,4-dihydro-1H-isoquinolin-2-yl)-1-(3-fluorobenzyl)-2,3-dimethyl-1H-pyrrolo[2,3-c]pyridin-5-yl]-(morpholin-4-yl)-methanone hydrochloride] showed an IC50 of 62 nM.
The compound `C=CCn1c(C)c(C)c2cc(C(=O)O)nc(N3CCc4ccccc4C3)c21` [Example 732, 1-allyl-7-(3,4-dihydro-1H-isoquinolin-2-yl)-2,3-dimethyl-1H-pyrrolo[2,3-c]pyridin-5-carboxylic acid] gave an IC50 of 22 nM.
Compound `Cc1ccc(Cn2c(C)c(C)c3ccnc(NCc4ccc(F)cc4)c32)cc1` [Example 220, 7-(4-fluorobenzylamino)-2,3-dimethyl-1-(4-methylbenzyl)-1H-pyrrolo[2,3-c]pyridine hydrochloride] had an IC50 of 430 nM.
As to `Cc1c(C)n(CC2OCCO2)c2c(N(C)Cc3ccc(F)cc3)nccc12` [Example 158, 1-(1,3-dioxolan-2-ylmethyl)-7-[N-(4-fluorobenzyl)-N-methyl]amino-2,3-dimethyl-1H-pyrrolo[2,3-c]pyridine hydrochloride], half-maximal inhibition (IC50) required 270 nM.
`C=CCn1c(C)c(C)c2cc(C(=O)N3CCN(C)CC3)nc(N3CCc4ccccc4C3)c21` [Example 785, [1-allyl-7-(3,4-dihydro-1H-isoquinolin-2-yl)-2,3-dimethyl-1H-pyrrolo[2,3-c]pyridin-5-yl]-(4-methylpiperazin-1-yl)-methanone hydrochloride] came in with an IC50 of 0.7 nM.
In the case of `Cc1c(C)n(Cc2ccccc2)c2c(CNc3ccc(F)cc3)nccc12` [Example 89, N-(1-benzyl-2,3-dimethyl-1H-pyrrolo[2,3-c]pyridin-7-ylmethyl)-4-fluorophenylamine hydrochloride], it took 321 nM to reach half-maximal inhibition (IC50). Compared with the last compound, the IC50 is about 460-fold higher.
As to `COCCn1c(C)c(C)c2ccnc(N3CCc4ccccc4C3C)c21` (stereo not shown) [Example 555, 2-[1-(2-methoxyethyl)-2,3-dimethyl-1H-pyrrolo[2,3-c]pyridin-7-yl]-1-methyl-1,2,3,4-tetrahydroisoquinoline hydrochloride], 230 nM corresponded to half-maximal inhibition (IC50).
Take `Cc1c(C)n(CC2CC2)c2c(N3CCc4ccccc4C3)nc(C(=O)N3CCNCC3)cc12` [Example 816, [1-cyclopropylmethyl-7-(3,4-dihydro-1H-isoquinolin-2-yl)-2,3-dimethyl-1H-pyrrolo[2,3-c]pyridin-5-yl]-(piperazin-1-yl)-methanone hydrochloride]: the IC50 came out at 9 nM. Compared with the last compound, the IC50 is about 26-fold lower.
Regarding `COc1ccc(Cn2c(C)c(C)c3ccnc(CCc4ccccc4)c32)cc1` [Example 445, 1-(4-methoxybenzyl)-2,3-dimethyl-7-phenethyl-1H-pyrrolo[2,3-c]pyridine hydrochloride], half-maximal inhibition (IC50) required 460 nM.
To `Cc1c(C)n(CC2CC2)c2c(N3CCc4ccccc4C3)nc(C(=O)N3CCOCC3)cc12` [Example 778, [1-cyclopropylmethyl-7-(3,4-dihydro-1H-isoquinolin-2-yl)-2,3-dimethyl-1H-pyrrolo[2,3-c]pyridin-5-yl]-(morpholin-4-yl)-methanone hydrochloride] belongs 39 nM.
The compound `C=CCn1c(C)c(C)c2ccnc(CCc3ccccc3)c21` [Example 448, 1-allyl-2,3-dimethyl-7-phenethyl-1H-pyrrolo[2,3-c]pyridine hydrochloride] had an IC50 of 230 nM.
For the compound `Cc1c(C)n(Cc2ccccc2)c2c(N3CCc4ccccc4C3)nc(C(=O)N3CCNCC3)cc12` [Example 812, [1-benzyl-7-(3,4-dihydro-1H-isoquinolin-2-yl)-2,3-dimethyl-1H-pyrrolo[2,3-c]pyridin-5-yl]-(piperazin-1-yl)-methanone hydrochloride], half-maximal inhibition (IC50) required 21 nM.
As to `Cc1c(C)n(Cc2cccc(Cl)c2)c2c(N3CCc4ccccc4C3)nc(CN3CCN(C)CC3)cc12` [Example 875, 2-[1-(3-chlorobenzyl)-2,3-dimethyl-5-(4-methylpiperazin-1-ylmethyl)-1H-pyrrolo[2,3-c]pyridin-7-yl]-1,2,3,4-tetrahydroisoquinoline hydrochloride], the IC50 was determined as 258 nM. This IC50 lies about 12-fold higher than the previous one.
Compound `C=Cc1ccc(-c2nccc3c(C)c(C)n(Cc4cccc(F)c4)c23)cc1` [Example 243, 1-(3-fluorobenzyl)-2,3-dimethyl-7-(4-vinylphenyl)-1H-pyrrolo[2,3-c]pyridine hydrochloride] had an IC50 of 90 nM.
As to `Cc1c(C)n(Cc2cccc(F)c2)c2c(N(C)Cc3ccc(F)cc3)nccc12` [Example 159, 1-(3-fluorobenzyl)-7-[N-(4-fluorobenzyl)-N-methyl]amino-2,3-dimethyl-1H-pyrrolo[2,3-c]pyridine hydrochloride], it took 90 nM to reach half-maximal inhibition (IC50).
`Cc1ccc(-c2nccc3c(C)c(C)n(Cc4cccc(F)c4)c23)cc1` [Example 284, 2,3-dimethyl-1-(3-fluorobenzyl)-7-(p-tolyl)-1H-pyrrolo[2,3-c]pyridine hydrochloride] gave an IC50 of 267 nM. This IC50 lies about 3-fold higher than the previous one.
Consider `CCCn1c(C)c(C)c2cc(C(=O)N3CCCCC3)nc(N3CCc4ccccc4C3)c21` [Example 801, [7-(3,4-dihydro-1H-isoquinolin-2-yl)-2,3-dimethyl-1-propyl-1H-pyrrolo[2,3-c]pyridin-5-yl]-(piperidin-1-yl)-methanone hydrochloride], for which the IC50 is 158 nM.
`C=CCCn1c(C)c(C)c2cc(C#N)nc(N3CCc4ccccc4C3)c21` [Example 683, 1-(but-3-enyl)-7-(3,4-dihydro-1H-isoquinolin-2-yl)-2,3-dimethyl-1H-pyrrolo[2,3-c]pyridin-5-carbonitrile] displayed an IC50 of 1560 nM.
Take `COCCn1c(C)c(C)c2ccnc(N(C)Cc3ccc(F)cc3)c21` [Example 143, 7-[N-(4-fluorobenzyl)-N-methyl]amino-1-(2-methoxyethyl)-2,3-dimethyl-1H-pyrrolo[2,3-c]pyridine hydrochloride]: the IC50 worked out at 300 nM.
In the case of `Cc1c(C)n(Cc2cccc(F)c2)c2c(N3CCc4ccccc4C3)nc(CF)cc12` [Example 885, 2-[1-(3-fluorobenzyl)-5-fluoromethyl-2,3-dimethyl-1H-pyrrolo[2,3-c]pyridin-7-yl]-1,2,3,4-tetrahydroisoquinoline hydrochloride], the IC50 came to 217 nM. This IC50 and that of the compound before are within 1.5-fold of each other.
Regarding `CC(C)=CCn1c(C)c(C)c2ccnc(N3CCc4ccc(Cl)cc4C3C)c21` (stereo not shown) [Example 534, 7-chloro-2-[2,3-dimethyl-1-(3-methylbut-2-enyl)-1H-pyrrolo[2,3-c]pyridin-7-yl]-1-methyl-1,2,3,4-tetrahydroisoquinoline hydrochloride], the IC50 was 400 nM.
`Cc1c(C)n(Cc2cccc(F)c2)c2c(N3CCc4ccccc4C3)nc(C#N)cc12` [Example 695, 7-(3,4-dihydro-1H-isoquinolin-2-yl)-1-(3-fluorobenzyl)-2,3-dimethyl-1H-pyrrolo[2,3-c]pyridin-5-carbonitrile] yielded an IC50 of 481 nM.
The compound `COc1cccc(Cn2c(C)c(C)c3cc(C(=O)N4CCC(C)CC4)nc(N4CCc5ccccc5C4)c32)c1` [Example 823, [7-(3,4-dihydro-1H-isoquinolin-2-yl)-1-(3-methoxybenzyl)-2,3-dimethyl-1H-pyrrolo[2,3-c]pyridin-5-yl]-(4-methylpiperidin-1-yl)-methanone hydrochloride] gave an IC50 of 216 nM.
To `Cc1[nH]c2c(NCc3ccc(F)cc3)nc(C#N)cc2c1C` [Example 910, 7-(4-fluorobenzylamino)-2,3-dimethyl-1H-pyrrolo[2,3-c]pyridin-5-carbonitrile hydrochloride] belongs 393 nM.
Turning to `CCCn1c(C)c(C)c2ccnc(NCc3ccc(F)cc3)c21` [Example 228, 7-(4-fluorobenzylamino)-2,3-dimethyl-1-propyl-1H-pyrrolo[2,3-c]pyridine hydrochloride], the IC50 was found to be 133 nM.
As to `C=C=Cn1c(C)c(C)c2ccnc(N3CCc4ccccc4C3)c21` [Example 526, 1-(propa-1,2-dienyl)-7-(1,2,3,4-tetrahydroisoquinolin-2-yl)-2,3-dimethyl-1H-pyrrolo[2,3-c]pyridine hydrochloride], the IC50 is 179 nM.
For the compound `Cc1cccc(Cn2c(C)c(C)c3cc(C(=O)N4CCCCC4)nc(N4CCc5ccccc5C4)c32)c1` [Example 798, [7-(3,4-dihydro-1H-isoquinolin-2-yl)-2,3-dimethyl-1-(3-methylbenzyl)-1H-pyrrolo[2,3-c]pyridin-5-yl]-(piperidin-1-yl)-methanone hydrochloride], the IC50 was 220 nM. The IC50 values of the last two compounds are within 1.5-fold of each other.
`CCn1c(C)c(C)c2cc(N)nc(N3CCc4ccccc4C3)c21` [Example 849, 7-(3,4-dihydro-1H-isoquinolin-2-yl)-1-ethyl-2,3-dimethyl-1H-pyrrolo[2,3-c]pyridin-5-amine hydrochloride] yielded a 50% inhibitory concentration (IC50) of 129 nM.
